# Measurements as given in patent publication US20160158179A1, “NANOEMULSION THERAPEUTIC COMPOSITIONS AND METHODS OF USING THE SAME” (THE REGENTS OF THE UNIVERSITY OF MICHIGAN, priority 2008, published 2016).
# Key:
# [1] = test system: H. influenzae clinical isolates; experiment: MIC and MBC susceptibility assays (CLSI); type: cell-based, Haemophilus influenzae; conditions: for MIC 50: Haemophilus influenzae, all H. influenzae strains of Table 6, control antibiotics
# [2] = test system: H. influenzae clinical isolates; conditions: ATCC H. influenzae 49247 quality control isolate; acceptable QC range; cited from earlier work
# [3] = test system: Acinetobacter baumannii; experiment: MIC and MBC determination (CLSI, alamar blue)
# [4] = test system: Pseudomonas aeruginosa; experiment: MIC and MBC determination (CLSI, alamar blue), CF isolates
# [5] = test system: Burkholderia cenocepacia; experiment: as above
# [6] = test system: Stenotrophomonas maltophilia; experiment: as above
# [7] = test system: Pseudomonas, Burkholderia, Acinetobacter and Stenotrophomonas; experiment: MIC and MBC determination (CLSI, alamar blue), all strains of Example 8
# [8] = test system: Acinetobacter baumannii; experiment: MIC determination, CLSI microdilution with alamar blue; type: cell-based
# [9] = test system: Stenotrophomonas maltophilia; experiment: as above; type: cell-based
# [10] = test system: Pseudomonas aeruginosa; experiment: as above; type: cell-based; conditions: Pseudomonas aeruginosa (n = 5); nanoemulsions in the presence of 5 mM EDTA; in µg/mL
# [11] = test system: Stenotrophomonas strains; experiment: Checkerboard synergy study (FIC/FBC index); type: cell-based, Stenotrophomonas maltophilia; conditions: in combination with P4075EC+EDTA
# [12] = test system: Acinetobacter strains; experiment: Checkerboard synergy study (FIC/FBC index); type: cell-based, Acinetobacter baumannii; conditions: in combination with P4075EC+EDTA
# [13] = test system: Burkholderia strains; experiment: Checkerboard synergy study (FIC/FBC index); type: cell-based, Burkholderia cenocepacia; conditions: in combination with P4075EC+EDTA
# [14] = share of 10 Stenotrophomonas strains with synergy
# [15] = share of 10 Acinetobacter strains with synergy
# [16] = share of 10 Burkholderia strains with synergy
compound,measurement,setting,value
"CC[C@H]1OC(=O)[C@H](C)[C@@H](O[C@H]2C[C@@](C)(OC)[C@@H](O)[C@H](C)O2)[C@H](C)[C@@H](O[C@@H]2O[C@H](C)C[C@H](N(C)C)[C@H]2O)[C@](C)(O)C[C@@H](C)CN(C)[C@H](C)[C@@H](O)[C@]1(C)O [Azi, azithromycin]",susceptibility of the majority of isolates by MIC90 values,[1],susceptible
same,MIC 50,[1],2 µg/mL
same,QC MIC range,[2],A (QC MIC range is 1-4) μg/ml
CO/N=C(\C(=O)N[C@@H]1C(=O)N2C(C(=O)[O-])=C(C[N+]3(C)CCCC3)CS[C@H]12)c1csc(N)n1 [Cefepime],susceptibility of the majority of isolates by MIC90 values,[1],susceptible
same,MIC 50,[1],0.125 µg/mL
same,QC MIC range,[2],C (QC MIC range is 0.5-2) μg/ml
same,MIC 50,[3]; Acinetobacter,32 µg/mL
same,MIC 90,[3]; Acinetobacter,>32 µg/mL
same,MIC 50,[3]; Acinetobacter baumannii,32 µg/mL
same,MIC 90,[3]; Acinetobacter baumannii,> 32 µg/mL
same,MIC 50,[4]; Pseudomonas,2 µg/mL
same,MIC 90,[4]; Pseudomonas,32 µg/mL
same,MIC 90,[5]; Burkholderia,>32 µg/mL
same,MIC 50,[5]; Burkholderia cenocepacia,32 µg/mL
same,MIC 90,[5]; Burkholderia cenocepacia,> 32 µg/mL
same,MIC 50,[6]; Stenotrophomonas,>32 µg/mL
same,MIC 90,[6]; Stenotrophomonas,>32 µg/mL
same,MIC 90,[6]; Stenotrophomonas maltophilia,> 32 µg/mL
same,MIC 90,[7],≥ 2 µg/mL
same,MBC,[7]; read-out: MBC90,> 32 µg/mL
"O=C(O)CN(CCN(CC(=O)O)CC(=O)O)CC(=O)O [EDTA, ethylenediaminetetraacetic acid]",number of strains inhibited by EDTA alone,[8]; A. baumannii (n = 5),3
same,number of strains inhibited by EDTA alone,[9]; S. maltophilia (n = 5),5
same,EDTA concentration inhibiting growth of H. influenzae,[1]; EDTA alone,≥ 2 mM
Colistin,MIC Range,[10],<=0.5-2
same,MIC Range,"[8]; Acinetobacter baumannii (n = 5), nanoemulsions in the presence of 5 mM EDTA, in µg/mL",<=0.5-2
same,MIC Range,"[9]; Stenotrophomonas maltophilia (n = 5), nanoemulsions in the presence of 5 mM EDTA, in µg/mL",<=0.5-1
same,Overall synergy result,[11]; Stenotrophomonas,Synergy
same,FIC,[11]; isolate NB42,0.08
same,Synergy (FBC),[11]; isolate NB42,indifferent
same,Synergy (FIC),[11]; isolate NB42,yes
same,FBC,[11]; isolate NB43,0.15
same,FIC,[11]; isolate NB43,0.08
same,Synergy (FBC),[11]; isolate NB43,yes
same,Synergy (FIC),[11]; isolate NB43,yes
same,FBC,[11]; isolate NB44,0.57
same,Synergy (FBC),[11]; isolate NB44,indifferent
same,Synergy (FIC),[11]; isolate NB44,indifferent
same,FBC,[11]; isolate NB45,0.45
same,FIC,[11]; isolate NB45,0.04
same,Synergy (FBC),[11]; isolate NB45,yes
same,Synergy (FIC),[11]; isolate NB45,yes
same,Synergy (FBC),[11]; isolate Steno 1,yes and indifferent
same,Synergy (FIC),[11]; isolate Steno 1,yes and indifferent
same,Synergy (FBC),[11]; isolate Steno 2,yes and indifferent
same,Synergy (FIC),[11]; isolate Steno 2,yes
same,Synergy (FBC),[11]; isolate Steno 3,yes and indifferent
same,Synergy (FIC),[11]; isolate Steno 3,yes and indifferent
same,FBC,[11]; isolate Steno 4,1.61
same,Synergy (FBC),[11]; isolate Steno 4,indifferent
same,Synergy (FIC),[11]; isolate Steno 4,yes and indifferent
same,Synergy (FBC),[11]; isolate Steno 6,yes and indifferent
same,Synergy (FIC),[11]; isolate Steno 6,yes and indifferent
same,Synergy (FBC),[11]; isolate Steno 8,yes and indifferent
same,Synergy (FIC),[11]; isolate Steno 8,yes and indifferent
same,% FBC Synergy,[11]; [14],70%
same,% FIC Synergy,[11]; [14],90%
same,Overall synergy result,[12]; Acinetobacter,No Interference
same,FIC,[12]; isolate NB31,0.83
same,Synergy (FBC),[12]; isolate NB31,indifferent
same,Synergy (FIC),[12]; isolate NB31,indifferent
same,FIC,[12]; isolate NB32,0.58
same,Synergy (FBC),[12]; isolate NB32,indifferent
same,Synergy (FIC),[12]; isolate NB32,indifferent
same,FBC,[12]; isolate NB33,2
same,FIC,[12]; isolate NB33,0.33
same,Synergy (FBC),[12]; isolate NB33,indifferent
same,Synergy (FIC),[12]; isolate NB33,yes
same,FBC,[12]; isolate NB34,1.10
same,FIC,[12]; isolate NB34,0.46
same,Synergy (FBC),[12]; isolate NB34,indifferent
same,Synergy (FIC),[12]; isolate NB34,yes
same,FBC,[12]; isolate NB35,0.97
same,FIC,[12]; isolate NB35,0.72
same,Synergy (FBC),[12]; isolate NB35,indifferent
same,Synergy (FIC),[12]; isolate NB35,indifferent
same,FBC,[12]; isolate NB36,2
same,FIC,[12]; isolate NB36,0.56
same,Synergy (FBC),[12]; isolate NB36,indifferent
same,Synergy (FIC),[12]; isolate NB36,indifferent
same,FBC,[12]; isolate NB37,1.00
same,FIC,[12]; isolate NB37,0.63
same,Synergy (FBC),[12]; isolate NB37,indifferent
same,Synergy (FIC),[12]; isolate NB37,indifferent
same,FBC,[12]; isolate NB38,0.68
same,FIC,[12]; isolate NB38,0.77
same,Synergy (FBC),[12]; isolate NB38,indifferent
same,Synergy (FIC),[12]; isolate NB38,indifferent
same,FIC,[12]; isolate NB39,0.72
same,Synergy (FBC),[12]; isolate NB39,indifferent
same,Synergy (FIC),[12]; isolate NB39,indifferent
same,FBC,[12]; isolate NB40,0.91
same,FIC,[12]; isolate NB40,0.63
same,Synergy (FBC),[12]; isolate NB40,indifferent
same,Synergy (FIC),[12]; isolate NB40,indifferent
same,% FBC Synergy,[12]; [15],0%
same,% FIC Synergy,[12]; [15],20%
same,Overall synergy result,[13]; Burkholderia,No Interference
same,Synergy (FBC),[13]; isolate NB21,indifferent
same,Synergy (FIC),[13]; isolate NB21,indifferent
same,Synergy (FBC),[13]; isolate NB22,indifferent
same,Synergy (FIC),[13]; isolate NB22,indifferent
same,FBC,[13]; isolate NB23,2.00
same,Synergy (FBC),[13]; isolate NB23,indifferent
same,Synergy (FIC),[13]; isolate NB23,indifferent
same,FBC,[13]; isolate NB24,2.00
same,Synergy (FBC),[13]; isolate NB24,indifferent
same,Synergy (FIC),[13]; isolate NB24,indifferent
same,FBC,[13]; isolate NB25,3.00
same,FIC,[13]; isolate NB25,2.00
same,Synergy (FBC),[13]; isolate NB25,indifferent
same,Synergy (FIC),[13]; isolate NB25,indifferent
same,FBC,[13]; isolate NB26,0.04
same,FIC,[13]; isolate NB26,0.56
same,Synergy (FBC),[13]; isolate NB26,yes
same,Synergy (FIC),[13]; isolate NB26,yes
same,Synergy (FBC),[13]; isolate NB27,indifferent
same,Synergy (FIC),[13]; isolate NB27,indifferent
same,FIC,[13]; isolate NB28b,0.29
same,Synergy (FBC),[13]; isolate NB28b,indifferent
same,Synergy (FIC),[13]; isolate NB28b,yes
same,Synergy (FBC),[13]; isolate NB29,indifferent
same,Synergy (FIC),[13]; isolate NB29,indifferent
same,FIC,[13]; isolate NB30,0.02
same,Synergy (FBC),[13]; isolate NB30,indifferent
same,Synergy (FIC),[13]; isolate NB30,yes
same,% FBC Synergy,[13]; [16],10%
same,% FIC Synergy,[13]; [16],30%
same,MBC 50,[3]; 10 CF Acinetobacter isolates,4 µg/mL
same,MBC 90,[3]; 10 CF Acinetobacter isolates,>16 µg/mL
same,MIC 50,[3]; 10 CF Acinetobacter isolates,1 µg/mL
same,MIC 90,[3]; 10 CF Acinetobacter isolates,1 µg/mL
same,MBC 90,[3]; A. baumannii,> 16 µg/mL
same,MIC 90,[3]; A. baumannii,1 µg/mL
same,MBC 50,[3]; Acinetobacter,4 µg/mL
same,MBC 90,[3]; Acinetobacter,>16 µg/mL
same,MIC 50,[3]; Acinetobacter,1 µg/mL
same,MIC 90,[3]; Acinetobacter,1 µg/mL
same,MBC 90,[4]; P. aeruginosa,8 µg/mL
same,MIC 90,[4]; P. aeruginosa,2 µg/mL
same,MBC 50,[4]; Pseudomonas,4 µg/mL
same,MBC 90,[4]; Pseudomonas,8 µg/mL
same,MIC 50,[4]; Pseudomonas,2 µg/mL
same,MIC 90,[4]; Pseudomonas,2 µg/mL
same,MBC 90,[5]; B. cenocepacia,> 32 µg/mL
same,MIC 90,[5]; B. cenocepacia,> 32 µg/mL
same,MBC 50,[5]; Burkholderia,>32 µg/mL
same,MBC 90,[5]; Burkholderia,>32 µg/mL
same,MIC 50,[5]; Burkholderia,>32 µg/mL
same,MIC 90,[5]; Burkholderia,>32 µg/mL
same,MIC,[5]; CF Burkholderia isolate NB26,>32 µg/mL
same,MBC 90,[6]; S. maltophilia,> 32 µg/mL
same,MIC 90,[6]; S. maltophilia,> 32 µg/mL
same,MBC 50,[6]; Stenotrophomonas,>32 µg/mL
same,MBC 90,[6]; Stenotrophomonas,>32 µg/mL
same,MIC 50,[6]; Stenotrophomonas,16 µg/mL
same,MIC 90,[6]; Stenotrophomonas,>32 µg/mL
Gentamicin,MIC Range,[10],<=2-4
